# What was measured:
# ACE-1 = ACE-1 protein and mRNA in rat lung tissue; format: in vivo; details: exercised rats
# Excerpt: After a week of the adaptation period, the rats were divided into eight equal groups containing seven rats each. The initial body weights of the rats were similar in all the groups (214.53 grams ± 4.67; P > 0.05).
# Groups 1 and 2 were not subjected to an exercise routine. Groups 3-8 were subjected to an exercise regimen consisting of a week training period with an incremental exercise capacity described below. After the week training period the exercise regimen followed was each rat in Groups 3-8 were subjected to 6 weeks of running at 25 m/min during 45 min […]. […] These correspond to 0, 250, 500, 1000, 2000 and 4000 mg per day for humans, respectively.
# To determine the protein accumulation in the liver, muscle and lung samples, a Western Blotting test was used. Each of the tissue samples of the same group were pooled, homogenized, and sonicated in lysis buffer supplemented with 1X protease and phosphatase inhibitor cocktail (#5872, Cell Signaling). Total protein content was detected with Qubit 2.0 Fluorometer according to the manufacturer’s protocol (Invitrogen, Life Technologies Corporation, Carlsbad, CA, USA). […] Protein levels were analyzed densitometrically using an image analysis system (Image J; National Institute of Health, Bethesda, MD, USA), corrected with values determined on β-actin blots and expressed as relative values compared with the control group. […]
# ACE-2 = assay: Human study, serum ELISA, ACE-2; format: in vivo
# Experimental: A human study was run with a total of 80 healthy male and female subjects ranging from 21 to 65 years of age, who were active (i.e. 30 minutes per day of moderate activity, 3 days per week) are randomized into two groups. […] Seventy-three subjects completed the trial and biomarker data were analyzed from the sera of the 73 completers. Sera were collected for analysis of C-Reactive Protein (CRP), ACE 1, ACE 2, TMPRSS 2, the Tumor Necrosis Factor alpha (TNF-alpha), and Furin at baseline in the beginning of the trial, at week 5 and 48 hr after an exercise challenge as described (Clinicaltrials.gov NCT04420377). The exercise challenge serves as surrogate to the inflammation stimulus.
# To obtain human sera, venous blood was extracted by venipuncture of the antecubital vein using a 21-gauge syringe and collected into a 10 mL EDTA vacutainer tube (BD Vacutainer®, Becton, Dickinson and Company, Franklin Lakes, NJ) by a certified phlebotomist. […] Human ACE-1, ACE-2, TMPRSS2, Furin, CRP and TNF-alpha protein levels were assessed using commercially available ELISA kits, according the manufacturer recommendations, ACE-1 (R&D systems Inc., Minneapolis, MN, USA), ACE-2 (RayBiotech inc., Peachtree Corners, GA), TMPRSS2 (Novus Biologicals, Littleton, CO), CRP (R&D Systems Inc., Minneapolis, MN), TNF-alpha (Novus Biologicals, Littleton, CO), and Furin (Sigma Aldrich, St. Louis, MO). […]
# Furin = Furin mRNA expression in Calu-3, RT real-time PCR; format: cell-based, human; details: Calu-3, 50 to 1,000 uM, 24 hr pre-treatment
structure (smiles),measurement,setting,value
C[N+](C)(C)C[C@H](O)CC(=O)[O-] [L-carnitine],ACE-1 mRNA levels,"ACE-1; compared to the exercise control, without reaching the control levels",increased
same,ACE-1 protein levels,"ACE-1; lung, FIG. 6A, significantly lower than the baseline control levels",increase
same,ACE-2 serum levels,"ACE-2; 2 g daily, 5 weeks, 48 hours after exercise challenge, versus placebo",significant decrease
same,decrease in ACE-2,"ACE-2; group A, from baseline compared to Wk5, p=0.046",8%
same,Furin expression levels,Furin,did not show any effect

# From patent publication US20230346735A1, “Nutritional Composition Comprising Carnitine and Method for Treating or Preventing an Infection in a Mammal” (priority 2020, published 2023)
